Experimental data: ChEMBL document CHEMBL5465560, “Selectivity Literature for EUbOPEN Chemogenomic Library” (2024)
Each block holds one compound with its values, some of them ahead of it.

What was measured:
[1] = target: G protein-coupled receptor kinase 4 (Homo sapiens) (UniProt P32298); experiment: Selectivity interaction (Ambit KINOMEscan and KiNATiv profiling in Jurkat cells) EUB0000090b GRK4; format: cell-based; conditions: at 1 µM
[2] = target: Receptor tyrosine-protein kinase erbB-4 (Homo sapiens, UniProt Q15303); experiment: Selectivity interaction (Kinase panel (Invitrogen)) EUB0000639a ERBB4; conditions: at 200 nM
Receptor tyrosine-protein kinase erbB-4, sequence (Q15303 whole entry): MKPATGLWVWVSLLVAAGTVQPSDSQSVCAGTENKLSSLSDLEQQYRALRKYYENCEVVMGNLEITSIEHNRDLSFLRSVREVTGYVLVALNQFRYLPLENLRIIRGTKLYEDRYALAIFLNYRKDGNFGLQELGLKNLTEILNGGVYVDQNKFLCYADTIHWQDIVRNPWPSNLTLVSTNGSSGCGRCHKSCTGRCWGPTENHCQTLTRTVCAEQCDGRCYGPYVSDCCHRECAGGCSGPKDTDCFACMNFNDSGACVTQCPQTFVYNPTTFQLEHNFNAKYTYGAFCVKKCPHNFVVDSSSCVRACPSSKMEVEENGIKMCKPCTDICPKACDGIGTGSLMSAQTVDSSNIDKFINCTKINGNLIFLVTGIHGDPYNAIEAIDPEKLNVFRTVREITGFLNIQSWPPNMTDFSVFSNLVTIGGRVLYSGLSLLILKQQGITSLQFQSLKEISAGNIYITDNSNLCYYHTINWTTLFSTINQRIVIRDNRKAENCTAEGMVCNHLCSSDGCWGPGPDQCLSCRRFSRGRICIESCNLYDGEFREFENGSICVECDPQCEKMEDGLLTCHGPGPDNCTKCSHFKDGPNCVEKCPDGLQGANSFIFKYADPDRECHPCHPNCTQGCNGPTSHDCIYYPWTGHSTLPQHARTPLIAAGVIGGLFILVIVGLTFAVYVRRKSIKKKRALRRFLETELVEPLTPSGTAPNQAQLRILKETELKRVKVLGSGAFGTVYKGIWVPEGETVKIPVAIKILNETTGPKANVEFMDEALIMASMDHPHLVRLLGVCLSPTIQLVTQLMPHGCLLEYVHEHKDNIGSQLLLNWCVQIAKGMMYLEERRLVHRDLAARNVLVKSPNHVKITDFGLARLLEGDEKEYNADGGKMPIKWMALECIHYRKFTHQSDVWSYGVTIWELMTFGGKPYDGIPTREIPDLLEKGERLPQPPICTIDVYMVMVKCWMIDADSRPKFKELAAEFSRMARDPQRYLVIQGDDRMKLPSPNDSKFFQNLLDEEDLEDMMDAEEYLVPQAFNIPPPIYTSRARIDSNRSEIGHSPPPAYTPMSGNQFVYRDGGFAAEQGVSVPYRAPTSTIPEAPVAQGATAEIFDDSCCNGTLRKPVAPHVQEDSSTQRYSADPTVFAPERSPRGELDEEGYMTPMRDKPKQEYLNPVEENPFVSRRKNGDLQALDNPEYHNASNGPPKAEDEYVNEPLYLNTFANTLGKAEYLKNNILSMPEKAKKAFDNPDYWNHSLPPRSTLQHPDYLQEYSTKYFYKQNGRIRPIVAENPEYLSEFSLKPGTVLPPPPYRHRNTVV

[3] = target: Bromodomain testis-specific protein (Homo sapiens) (UniProt Q58F21); experiment: Selectivity interaction (Bromodomain panel (DSF asssay)) EUB0000270b BRDT
[4] = target: Tyrosine-protein kinase CSK (Homo sapiens) (UniProt P41240); experiment: Selectivity interaction (Kinase panel (literature)) EUB0001199aCl CSK; conditions: at 1 µM
Tyrosine-protein kinase CSK (Homo sapiens), sequence (P41240 2-450 limits assumed): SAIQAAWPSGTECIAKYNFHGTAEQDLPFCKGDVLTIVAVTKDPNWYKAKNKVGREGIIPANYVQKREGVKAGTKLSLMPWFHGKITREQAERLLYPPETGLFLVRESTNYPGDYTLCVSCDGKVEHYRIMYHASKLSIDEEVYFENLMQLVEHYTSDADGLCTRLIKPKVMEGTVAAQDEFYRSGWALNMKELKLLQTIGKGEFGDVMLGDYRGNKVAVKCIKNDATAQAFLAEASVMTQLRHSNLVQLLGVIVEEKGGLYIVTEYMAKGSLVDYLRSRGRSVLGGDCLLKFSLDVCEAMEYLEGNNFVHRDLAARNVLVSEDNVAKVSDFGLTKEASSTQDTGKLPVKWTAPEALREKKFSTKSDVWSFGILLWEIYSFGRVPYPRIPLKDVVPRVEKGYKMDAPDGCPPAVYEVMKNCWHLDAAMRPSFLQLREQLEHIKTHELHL

[5] = target: T1, Myotonin-protein kinase (Homo sapiens) (UniProt Q09013); experiment: Selectivity interaction (KinomeScan (DiscoverX)) EUB0000618a DMPK; conditions: at 10 µM
T1 sequence (whole entry): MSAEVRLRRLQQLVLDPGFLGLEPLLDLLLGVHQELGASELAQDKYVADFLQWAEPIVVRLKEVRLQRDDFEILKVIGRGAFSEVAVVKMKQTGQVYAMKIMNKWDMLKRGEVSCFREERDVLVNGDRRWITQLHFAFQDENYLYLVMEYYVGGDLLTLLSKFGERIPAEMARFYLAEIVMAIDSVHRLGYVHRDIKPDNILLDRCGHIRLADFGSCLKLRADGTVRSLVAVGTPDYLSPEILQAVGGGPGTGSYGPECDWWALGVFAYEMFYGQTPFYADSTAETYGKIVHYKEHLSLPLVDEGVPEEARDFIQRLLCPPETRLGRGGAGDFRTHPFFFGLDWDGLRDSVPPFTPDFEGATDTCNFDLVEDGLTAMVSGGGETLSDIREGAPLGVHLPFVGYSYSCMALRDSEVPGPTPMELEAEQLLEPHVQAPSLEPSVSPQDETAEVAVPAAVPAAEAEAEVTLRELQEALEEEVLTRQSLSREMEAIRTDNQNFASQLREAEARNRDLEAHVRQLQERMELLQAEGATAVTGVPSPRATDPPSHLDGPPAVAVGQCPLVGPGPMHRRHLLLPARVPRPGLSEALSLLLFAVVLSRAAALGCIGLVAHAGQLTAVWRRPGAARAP

MAO-A (MAOA) = MAO-A (MAOA) (Homo sapiens, UniProt P21397); experiment: Selectivity interaction (Safety Panel 44tm (Eurofins)) EUB0000162b MAOA; conditions: at 10 µM, read-out: % of control
MAO-A (MAOA), sequence (P21397 whole entry): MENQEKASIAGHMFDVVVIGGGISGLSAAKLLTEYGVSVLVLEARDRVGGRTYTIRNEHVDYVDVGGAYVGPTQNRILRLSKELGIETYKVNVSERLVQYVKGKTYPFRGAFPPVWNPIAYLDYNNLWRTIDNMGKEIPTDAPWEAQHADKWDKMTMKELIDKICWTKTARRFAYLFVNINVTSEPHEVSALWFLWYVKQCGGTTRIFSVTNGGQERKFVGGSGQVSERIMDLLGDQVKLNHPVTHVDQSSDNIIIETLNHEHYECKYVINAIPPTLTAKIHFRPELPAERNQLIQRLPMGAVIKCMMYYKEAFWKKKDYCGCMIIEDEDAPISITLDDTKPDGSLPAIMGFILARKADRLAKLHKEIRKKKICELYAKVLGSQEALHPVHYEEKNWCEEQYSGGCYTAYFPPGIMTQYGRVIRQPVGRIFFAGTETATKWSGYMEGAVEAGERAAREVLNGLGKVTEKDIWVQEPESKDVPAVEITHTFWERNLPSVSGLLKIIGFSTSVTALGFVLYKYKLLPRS

[6] = target: T2, Inhibitor of nuclear factor kappa-B kinase subunit beta (Homo sapiens) (UniProt O14920); experiment: Selectivity interaction (SelectScreen profiling (Invitrogen)) EUB0000607a IKBKB; conditions: at 2 µM
T2 sequence (whole entry): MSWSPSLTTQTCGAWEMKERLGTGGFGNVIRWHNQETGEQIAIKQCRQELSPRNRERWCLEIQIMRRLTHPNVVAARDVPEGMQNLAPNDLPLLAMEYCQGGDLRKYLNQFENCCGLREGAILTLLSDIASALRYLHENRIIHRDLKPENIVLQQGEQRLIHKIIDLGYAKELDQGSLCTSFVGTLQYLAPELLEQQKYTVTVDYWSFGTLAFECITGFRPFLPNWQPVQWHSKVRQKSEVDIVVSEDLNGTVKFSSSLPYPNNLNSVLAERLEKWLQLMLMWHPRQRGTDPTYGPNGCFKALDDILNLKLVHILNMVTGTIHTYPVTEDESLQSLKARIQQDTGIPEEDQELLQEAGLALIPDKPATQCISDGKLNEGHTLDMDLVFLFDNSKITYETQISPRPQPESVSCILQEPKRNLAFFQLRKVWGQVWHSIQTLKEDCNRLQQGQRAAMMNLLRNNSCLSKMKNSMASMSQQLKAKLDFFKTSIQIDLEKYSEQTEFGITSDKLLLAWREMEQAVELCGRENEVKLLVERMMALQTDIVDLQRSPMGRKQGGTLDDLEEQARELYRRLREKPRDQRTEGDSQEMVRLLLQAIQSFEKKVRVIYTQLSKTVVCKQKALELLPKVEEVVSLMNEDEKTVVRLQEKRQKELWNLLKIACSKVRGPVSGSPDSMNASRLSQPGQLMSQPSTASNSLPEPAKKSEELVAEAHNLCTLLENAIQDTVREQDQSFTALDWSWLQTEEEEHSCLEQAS

[7] = target: T3, Serine/threonine-protein kinase tousled-like 1 (Homo sapiens) (UniProt Q9UKI8); experiment: Selectivity interaction (KinomeScan (DiscoverX)) EUB0000607a TLK1; conditions: at 10 µM
T3 sequence (whole entry): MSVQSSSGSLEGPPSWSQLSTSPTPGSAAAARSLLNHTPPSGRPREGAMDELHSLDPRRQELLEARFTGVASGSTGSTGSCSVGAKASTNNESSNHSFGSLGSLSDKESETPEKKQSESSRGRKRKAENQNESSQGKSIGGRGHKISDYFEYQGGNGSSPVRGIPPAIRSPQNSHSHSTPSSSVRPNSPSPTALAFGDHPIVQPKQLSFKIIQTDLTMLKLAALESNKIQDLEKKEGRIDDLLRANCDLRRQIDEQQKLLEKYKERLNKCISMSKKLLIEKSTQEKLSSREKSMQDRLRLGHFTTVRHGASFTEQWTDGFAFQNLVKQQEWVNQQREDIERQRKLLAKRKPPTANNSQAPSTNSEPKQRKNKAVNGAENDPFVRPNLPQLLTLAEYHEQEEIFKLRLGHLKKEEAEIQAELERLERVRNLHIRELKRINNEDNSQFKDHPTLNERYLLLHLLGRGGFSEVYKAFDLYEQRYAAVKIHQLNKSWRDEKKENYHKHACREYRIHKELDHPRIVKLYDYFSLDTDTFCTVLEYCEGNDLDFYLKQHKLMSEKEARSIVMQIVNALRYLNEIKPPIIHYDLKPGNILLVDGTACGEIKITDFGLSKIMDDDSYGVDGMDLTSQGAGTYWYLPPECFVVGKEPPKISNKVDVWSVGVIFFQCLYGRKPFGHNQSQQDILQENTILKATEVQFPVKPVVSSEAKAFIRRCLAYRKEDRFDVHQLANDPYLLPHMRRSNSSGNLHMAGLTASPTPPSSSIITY

G protein-coupled receptor kinase 4 (Homo sapiens), sequence (P32298 whole entry, looked up): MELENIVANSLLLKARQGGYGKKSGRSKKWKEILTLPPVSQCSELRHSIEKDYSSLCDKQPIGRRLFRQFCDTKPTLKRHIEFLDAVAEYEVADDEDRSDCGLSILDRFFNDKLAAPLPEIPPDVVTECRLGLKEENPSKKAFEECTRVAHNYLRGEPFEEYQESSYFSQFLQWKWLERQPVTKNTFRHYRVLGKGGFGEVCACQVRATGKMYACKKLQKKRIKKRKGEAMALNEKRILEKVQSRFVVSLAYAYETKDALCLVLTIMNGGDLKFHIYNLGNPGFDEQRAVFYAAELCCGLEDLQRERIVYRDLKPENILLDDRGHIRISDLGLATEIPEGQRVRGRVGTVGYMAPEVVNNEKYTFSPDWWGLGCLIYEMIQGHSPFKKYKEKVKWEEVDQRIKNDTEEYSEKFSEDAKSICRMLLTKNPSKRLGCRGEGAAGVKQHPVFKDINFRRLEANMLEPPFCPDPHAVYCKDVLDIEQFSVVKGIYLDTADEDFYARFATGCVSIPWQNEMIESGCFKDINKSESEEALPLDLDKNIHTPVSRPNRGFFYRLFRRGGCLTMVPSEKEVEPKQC

SMILES: CN(C)C/C=C/C(=O)Nc1ccc(C(=O)N2CCCC(Nc3ncc(Cl)c(-c4c[nH]c5ccccc45)n3)C2)cc1 (stereo not drawn)
- % of control [1]: 99%

- % of inhibition [2]: 8.76%
SMILES: CC[C@@H]1[C@H](F)C(=O)N[C@@H]1COc1nccc2cc(C(N)=O)c(OC)cc12 [ZIMLOVISERTIB]

- dTM [3]: -1.97 K
SMILES: Cc1cc(CN)cc(C)c1-c1ncn(C)c1-c1cncn1C

- % of inhibition [4]: -3%
SMILES: CN1Cc2nccc(-c3cn(C)nc3-c3ccc(F)cc3)c2C1=O

SMILES: O[C@H]1CC[C@H](Nc2ncc3nc(Nc4c(F)cc(F)cc4F)n([C@H]4CCOC4)c3n2)CC1
- % of control [5]: 100%

SMILES: CN(C)C(=O)Cn1cc(-c2ccc(-c3cncc4ccccc34)cc2)cn1
- activity (MAO-A (MAOA)): 30%

SMILES: CNC(=O)Nc1ccc(-c2nc(N3CC4CCC(C3)O4)c3cnn(C4CCC5(CC4)OCCO5)c3n2)cc1
- % of inhibition [6]: -5%
- % of control [7]: 86%
